# Source: patent publication US7666842B2, “Elastin peptide analogs and uses thereof” (Connective Tissue Imagineering, LLC, priority 1998, dated 2010)
# Ends that are not written are not given here.
# Assays:
# rat skin = assay: H&E histology of treated rat skin (Example 6); type: in vivo; settings: for Outer (keratin) layer and vascularity of the inner layer: treated skin sections; for Thickness of the dermal layer of skin: vs untreated controls (both shaven and unshaven)
# Method: Rat skin was treated with 7-hydroxy DHEA and 7-hydroxy isoandrosterone. Skin cross sections were stained with hematoxylin and eosin (H&E) and examined histologically. […] The DHEA and derivatives induction of dermal thickening was reversible. A subset of experimental animals within each treatment group were left untreated for 30 days. Upon examination, treated skin sections were indistinguishable from the untreated. Concomitant toxicological studies found no significant toxicity when the compounds were used at 0.5% concentration in a suitable carrier applied twice daily (12 hour intervals) for 30 days.
# [1] = In-vitro oxygen radical assay (luminol chemiluminescence, hydrogen peroxide); type: biochemical; settings: diluted luminol pre-incubated with compound; 100 μg/ml for DHEA
# Method: The ability of a compound to scavenge free radicals may implicate it as an anti-oxidizing agent. To test whether DHEA or it derivatives had the ability to capture free radicals, an in-vitro oxygen radical assay was used. The assay was run in quadruplicate to perfect the concentrations of controls as well as test the diluents (phosphate buffered saline (PBS) and DMSO) in which the DHEA and its derivatives were dissolved. The positive controls used were homocysteine and ascorbic acid (Vitamin C).
# [2] = tested on: skins of neonatal male Sprague-Dawley rats; assay: Collagen content of neonatal rat skin (hydroxyproline); type: in vivo; settings: 0.5% in carrier twice daily, 30 days; five animals per group
# Method: (§1) DHEA and the derivative compounds of DHEA (the 7 hydroxy derivative and 7 hydroxy-isoandrosterone) modified the elastin and collagen contents of neonatal rat skin when applied twice daily over a 30 day period at a concentration of 0.5% in a suitable carrier.
# (§2) Collagen and elastin contents were measured on dry, defatted, hair-free skin samples. Collagen contents were assessed through hydroxyproline evaluations in hydrolyzed, 0.1N hot sodium hydroxide extracts. Elastin contents were measured by HPLC evaluation of the contents of thermolysin-produced peptides in digests of the hot sodium hydroxide residue. Controls were both shaven and unshaven, the shaven receiving only the carrier twice daily.
# (§3) Elastin contents were increased by all the compounds (28% for DHEA, 30% for the 7 hydroxy derivative and the 7 hydroxy-isoandrosterone). In these studies, statistical analysis of variance was significant at an alpha level of 0.01. Similar to the histological observations, these chemistries were reversible. Collagen and elastin contents returned to near normal levels after cessation of treatment for 30 days.
# [3] = tested on: skins of neonatal male Sprague-Dawley rats; assay: Elastin content of neonatal rat skin (HPLC of thermolysin-produced peptides); type: in vivo; settings: 0.5% in carrier twice daily, 30 days; five animals per group
# Method: as §1, §2, §3
# human keratinocytes [4] = assay: Viability of human keratinocytes (MTT); type: cell-based; settings: 10^−4 M to 10^−8 M
# Method: Human keratinocytes were obtained from surgical items and were cultivated in a monolayer until preconfluence. The 7α-hydroxy-DHEA was administered to these cultures at various concentrations in ethanolic solution (10%), each concentration being tested eight times. Controls were carried out with ethanol alone (10%). After twenty-four hours, the viability of the keratinocytes was measured by testing with MTT (3-(4,5-dimethylthiazol-2-yl)-2,5 diphenyl tetrazolium bromide) where the mitochondrial dehydrogenase succinate converts the MTT into blue crystals of formazan soluble in DMSO (Mosmann, J. Immunol. Methods 65: 55-63, 1983). The cellular viability is calculated according to the formula: % viability=DO540 product×100/DO540 control.
# A value greater than 100 indicates a product that encourages cellular viability.
# human fibroblasts = assay: Proliferation of human fibroblasts in culture (cell count); type: cell-based; settings: 72 hours of contact, control 190,667 ± 6,766
# Method: Cultures of human fibroblasts (from a person) were seeded on twenty-four site plates at the rate of 50,000 cells per site in a standard culture medium (DMEM, gentamycine, amphotericine B, penicillin, L-glutamine, 10% SVF). The tests were carried out on four series of three sites. After twenty-four hours, the fibroblasts adhered to the support and three series were treated with 7α-hydroxy-DHEA at concentrations of 10^−6 M, 5×10^−6 M and 10^−7 M. The fourth series only contained the vector (ethanol). The media were renewed daily, and at ninety-six hours (seventy-two hours of test contact with the 7α-hydroxy-DHEA), the fibroblasts were counted on a Malassez cell in the presence of blue trypan.
# human keratinocytes [5] = assay: Anti-radical effect on UVA-irradiated human keratinocytes (lipoid peroxides, chemiluminescence); type: cell-based; settings: 10^−6 M
# Description: Keratinocytes from a healthy donor were cultivated to the subconfluent stage in a specific medium (KGM) for the proliferation of keratinocytes. The suspensions obtained were split up, in triplicate, into four series, of which three were irradiated for thirty minutes with a lamp emitting UVA so as to speed up the production of free radicals. Among the three irradiated series, one contained Vitamins C and E (0.7%) and was used as a protection reference; one contained 7α-hydroxy-DHEA at 10^−6 M and the last served as a control.
# The free radicals produced generated lipoid peroxides which are measured by chemiluminescence (Belghmi et al. J Biolum. Chemilum. 2: 113-119, 1982). The effectiveness of the 7α-hydroxy-DHEA was calculated on the basis of non-irradiated controls and the protection reference.
# [6] = tested on: skin of Sprague-Dawley male rats; assay: Elastin content of rat skin after topical treatment (Example 2); type: in vivo; settings: topical DHEA, 5% concentration, similar time period; S CONTR 1.408, US CONTR 2.291
# Method: Topical treatment of Sprague-Dawley male rats with a composition including peptides (i.e., SEQ IDs 1-41) at a concentration of about 1.3% (wt/wt) of the formulation over a one month period was performed. The rats were treated topically with a 1.3% concentration (wt/wt) of the preparation of the hydrophilic elastin peptide for a period of 30 days. […] Three animals each were used to generate the data for S CONTR, US CONT, and DHEA and eleven animals were used for HEP. Three skin samples from the treated areas of each animal were taken for study, and the three results from each animal were averaged. […] The elastin content of the skin was determined by a precise assay for rat elastin developed by Sandberg, et al. (Connective Tissue Research 25:139-48, 1990) the assay portion of which is hereby incorporated herein by reference thereto. […]
# An alpha level less than 0.001 for the data as determined by analysis of variance is significant because there is less than one chance in a thousand that the findings occur by chance.
# skin of treated rats = assay: Fluorescent micrographs of skin cross-sections stained with anti-fibronectin antibodies (Example 3); type: in vivo, rat; settings: FIG. 2C DHEA topical, FIG. 2D peptide composition
# Description: FIGS. 2A-D are fluorescent micrographs of fixed skin cross-sections taken from rats treated as described in Example 3, and stained with fluorescein-conjugated anti-fibronectin antibodies. FIG. 2A is a representative sample from the unshaven control tissue; FIG. 2B is a representative sample from the shaven control sample; FIG. 2C is a representative sample of tissue which received DHEA topical treatment; and FIG. 2D is a representative sample of tissue which received treatment of a composition containing peptides, as described in Example 2. In each of the panels, the dermal layer of the skin is indicated by a bracket.
# The capillary venules are shown in this figure as brightly stained oval bodies that lie beneath the dermal layer. The increase in the concentration of endothelial cells in the subdermal region indicates an increase in capillary density and therefore illustrates the potential for the peptides and formulations of the present invention to be used for the formation of blood vessels or capillary venules (neovascularization or angiogenesis).
# RFL-6 cells [7] = assay: Tritiated thymidine incorporation in RFL-6 cells; settings: synthetic peptides, 24 hour incubation with RFL-6 cells
# Method: Synthetic peptides were tested for their ability to stimulate incorporation of tritiated thymidine with a 24 hour incubation with RFL-6 cells.
# RFL-6 cells [8] = assay: BrdUTP incorporation assay (mRNA, green fluorescence) in RFL-6 cells; type: cell-based; settings: sub-fractions of Fraction #3 (HPLC peaks at 215 nm); Blank (Background) 30
# Method: A study was performed to determine whether different peptides had different activities in promoting skin health. Elastin protein was partially digested with thermolysin and the resulting peptides (i.e., SEQ ID 1-SEQ ID 41) were applied to an HPLC column. Five fractions containing clusters of peptides were collected from the column in the 5-50 minute range. The fractions were tested for activity using a bromodeoxyuridine Triphosphate (BrdUTP) incorporation assay in RFL-6 cells. The assay measures production of mRNA involved in protein synthesis.
# Fraction #3 was sub-fractionated into 10 fractions corresponding to ten major peaks identified on the HPLC (at 215 nm). Table VI below illustrates the green fluorescence intensity as a measure of increased mRNA in RFL-6 cells in response to sub-fractionated portions of Fraction #3.
molecule,measurement,setting,value
C[C@]12CC[C@H](O)CC1=C[C@H](O)[C@@H]1[C@@H]2CC[C@]2(C)C(=O)CC[C@@H]12 [7-hydroxy DHEA],Outer (keratin) layer and vascularity of the inner layer,rat skin,no change in the outer (keratin) layer nor increase of vascularity of the inner layer
same,Thickness of the dermal layer of skin,rat skin,thickened to nearly twice that of the untreated controls
same,Reduction of luminol light emission,[1],did not cause any reduction
same,Collagen increased by,[2],24%
same,Elastin contents increased by,[3],30%
C[C@]12CC[C@H](O)C[C@@H]1CC(O)[C@@H]1[C@@H]2CC[C@]2(C)C(=O)CC[C@@H]12 (some centres unmarked) [7-hydroxy isoandrosterone],Outer (keratin) layer and vascularity of the inner layer,rat skin,no change in the outer (keratin) layer nor increase of vascularity of the inner layer
same,Thickness of the dermal layer of skin,rat skin,thickened to nearly twice that of the untreated controls
same,Reduction of luminol light emission,[1],15%
same,Collagen increased by,[2],24%
same,Elastin contents increased by,[3],30%
"C[C@]12CC[C@H](O)CC1=C[C@@H](O)[C@@H]1[C@@H]2CC[C@]2(C)C(=O)CC[C@@H]12 [7α-hydroxy-DHEA, 3β,7α-dihydroxy-5-androstene-17-one]",Cytotoxicity on human keratinocytes,human keratinocytes [4],no cytotoxicity was observed
same,Number of Fibroblasts,human fibroblasts; 5 × 10^−6 M,"258,667 ± 3,351"
same,Number of Fibroblasts,human fibroblasts; 10^−6 M,"268,000 ± 27,154"
same,Number of Fibroblasts,human fibroblasts; 10^−7 M,"230,667 ± 8,511"
same,Chemiluminescence,"human keratinocytes [5]; UVA irradiated 30 minutes, non irradiated 2,529 ± 153, irradiated controls 427,750 ± 137,322","44,164 ± 13,303"
same,Effectiveness,"human keratinocytes [5]; UVA irradiated, calculated on non-irradiated controls and protection reference",90%
"C[C@]12CC[C@H](O)CC1=CC[C@@H]1[C@@H]2CC[C@]2(C)C(=O)CC[C@@H]12 [DHEA, 3β-hydroxy-5-androstene-17-one, reference compound]",Elastin content of the skin (mean),[6],1.753 μg Elastin per mg Skin Fat Fre
same,Dermal layer of control skin (FIGS. 2A and B) compared to treated skin (FIGS. 2C and D),skin of treated rats,thin compared to the thickness of the dermal layers in FIGS. 2C and D
same,Reduction of luminol light emission,[1],20%
same,Collagen decrease,[2],16%
same,Elastin contents increased by,[3],28%
Acetyl-GAVVPQ--NH2 (Ac-GAVVPQ-NH2; listed as Homo sapiens) [SEQ ID 44],"Tritiated thymidine incorporation, % CPM above the control",RFL-6 cells [7],~5 % CPM above the control
Acetyl-VVPQ (Ac-VVPQ; listed as Homo sapiens) [SEQ ID 43],"Tritiated thymidine incorporation, % CPM above the control",RFL-6 cells [7],~1 % CPM above the control
Alanine-Alanine-Alanine-Glutamine-Alanine (AAAQA; listed as Homo sapiens) [SEQ ID 22],% Change of Green Fluorescence Intensity,RFL-6 cells [8],20%
GAVVPQ--NH2 (GAVVPQ-NH2; listed as Homo sapiens) [SEQ ID 48],"Tritiated thymidine incorporation, % CPM above the control",RFL-6 cells [7],~25 % CPM above the control
Leucine-Glycine-Alanine-Glycine-Glycine-Alanine-Glycine [SEQ ID 19],"Tritiated thymidine incorporation, % CPM above the control",RFL-6 cells [7],~18 % CPM above the control
Valine-Glycine-Proline-Alanine [SEQ ID 14],% Change of Green Fluorescence Intensity,RFL-6 cells [8],39%
Valine-Glycine-Valine-Hydroxy-proline-Glycine [SEQ ID 23],% Change of Green Fluorescence Intensity,RFL-6 cells [8],57%
Valine-Tyrosine-Proline-Glycine-Glycine [SEQ ID 24],% Change of Green Fluorescence Intensity,RFL-6 cells [8],38%
Valine-Valine-Proline-Glutamine [SEQ ID 17],% Change of Green Fluorescence Intensity,RFL-6 cells [8],85%
same,"Tritiated thymidine incorporation, % CPM above the control",RFL-6 cells [7],~28 % CPM above the control
Valine-Valine-Proline-Glutamine-Amide [SEQ ID 42],"Tritiated thymidine incorporation, % CPM above the control",RFL-6 cells [7],~1 % CPM above the control
